The text below walks through data of patent publication US12570655B2, “Cysteine covalent modifiers of AKT1 and uses thereof” (Terremoto Biosciences, Inc., priority 2023, dated 2026).

Assay type in all cases: cell-based
One experiment has as its target T1, AKT1 E17K (Homo sapiens, UniProt P31749, E17K).
T1 construct: expressed in transfected cells; host or cells: HEK293
The experiment in a line: Live cell AKT1 E17K target engagement by NanoBRET competitive probe displacement. The settings on record: HEK293 cells transfected with kinase-NanoLuciferase fusion, 2 h at 37° C. In a few lines:
(§1)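 Live-cell competitive tracer displacement in HEK293 expressing NanoLuciferase-tagged kinase. Compound and ATP-competitive tracer (~EC50) are co-incubated 2 h at 37 °C; BRET (E600/E460) gives IC50.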

The target of the next experiment is T2, AKT2 (Homo sapiens, UniProt P31751).
T2 construct: expressed in transfected cells; host or cells: HEK293
T2 sequence (P31751 whole entry): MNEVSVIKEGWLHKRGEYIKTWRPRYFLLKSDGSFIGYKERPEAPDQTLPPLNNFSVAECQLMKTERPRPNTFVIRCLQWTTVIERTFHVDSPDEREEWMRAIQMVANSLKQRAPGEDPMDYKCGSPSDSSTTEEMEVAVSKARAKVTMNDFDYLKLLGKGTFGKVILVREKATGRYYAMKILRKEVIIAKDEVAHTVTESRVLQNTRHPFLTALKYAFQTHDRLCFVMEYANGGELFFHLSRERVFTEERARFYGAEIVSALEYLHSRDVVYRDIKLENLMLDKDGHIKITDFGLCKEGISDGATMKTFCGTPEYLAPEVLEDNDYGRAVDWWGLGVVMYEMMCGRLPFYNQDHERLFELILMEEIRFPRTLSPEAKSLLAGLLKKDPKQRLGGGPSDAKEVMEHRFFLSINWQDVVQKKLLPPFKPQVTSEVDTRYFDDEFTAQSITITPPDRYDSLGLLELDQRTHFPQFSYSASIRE
Put plainly: Live cell AKT2 target engagement by NanoBRET competitive probe displacement. The settings on record: HEK293 cells transfected with kinase-NanoLuciferase fusion, 2 h at 37° C. Summed up:
as §1
In general terms: Bioluminescence resonance energy transfer reports proximity on the nanometre scale.

For the next experiment, the target named is T3, AKT1 WT (Homo sapiens, UniProt P31749).
T3 construct: expressed in transfected cells; host or cells: HEK293
T3 sequence (P31749 whole entry): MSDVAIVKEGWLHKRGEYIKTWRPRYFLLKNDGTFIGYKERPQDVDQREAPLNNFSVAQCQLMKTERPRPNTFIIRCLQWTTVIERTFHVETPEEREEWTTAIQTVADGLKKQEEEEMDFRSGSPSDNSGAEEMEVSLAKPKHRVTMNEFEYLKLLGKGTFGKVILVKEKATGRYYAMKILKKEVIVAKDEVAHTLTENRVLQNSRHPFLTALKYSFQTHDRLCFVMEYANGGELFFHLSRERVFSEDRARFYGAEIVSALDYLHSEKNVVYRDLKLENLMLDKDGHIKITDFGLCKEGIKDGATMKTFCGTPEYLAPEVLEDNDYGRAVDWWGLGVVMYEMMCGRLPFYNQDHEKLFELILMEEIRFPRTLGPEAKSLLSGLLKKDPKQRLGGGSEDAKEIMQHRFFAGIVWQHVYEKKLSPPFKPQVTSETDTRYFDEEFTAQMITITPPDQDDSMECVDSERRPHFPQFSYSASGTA
The experiment in a line: Live cell AKT1 WT target engagement by NanoBRET competitive probe displacement. The settings on record: HEK293 cells transfected with kinase-NanoLuciferase fusion, 2 h at 37° C. In a few lines: as §1

For experiment [1], the system named is LAPC4 prostate cancer cells. Put plainly: Antiproliferative effects in LAPC4 cells (CellTiter Glo). The settings on record: LAPC4 cells (AKT1 E17K allele), read-out: LAPC4 proliferation IC50. In a few lines: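 Cells grown in IMDM supplemented with 12% FBS plus 1% P/S were treated for 72 h with DMSO-dissolved compounds. ATP-based luminescence was fitted to a log(inhibitor) versus response Hill model, giving IC50.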
On the technique in general: Cellular ATP, detected with luciferase, serves as a proxy for viable cell number.

Molecules are shown by their SMILES. Read-outs that look alike come from different tables or passages of the source.

T1 sequence (P31749 whole entry E17K): as the sequence (P31749 whole entry) above, with E17K counted along it

For `C=CC(=O)NC1CCC(N[C@H]2CCc3cc(-n4c(-c5cccnc5N)nc5ccc(-n6cccn6)nc54)ccc32)CC1` (single isomer, unassigned) [Example 47, N-((1*,4*)-4-(((S)-5-(2-(2-aminopyridin-3-yl)-5-(1H-pyrazol-1-yl)-3H-imidazo[4,5-b]pyridin-3-yl)-2,3-dihydro-1H-inden-1-yl)amino)cyclohexyl)acrylamide], the IC50 on AKT1 E17K is 0.548 µM; on AKT2, 2.57 µM; at AKT1 WT, 0.2 µM; in experiment [1] (72 h), 4.27 µM.

With `C#Cc1cccc(-c2ccc3nc(-c4cccnc4N)n(-c4ccc5c(c4)CC[C@@H]5NC4CCN(C(=O)C=C)CC4)c3n2)c1` [Example 178, 1-(4-{[(1S)-5-[2-(2-aminopyridin-3-yl)-5-(3-ethynylphenyl)imidazo[4,5-b]pyridin-3-yl]-2,3-dihydro-1H-inden-1-yl]amino}piperidin-1-yl)prop-2-en-1-one], the IC50 on AKT1 E17K amounted to 0.0181 µM; on AKT2, 0.0267 µM; at AKT1 WT it was 0.0332 µM; in experiment [1] (Homo sapiens, LAPC4, 72 h) it was 0.071 µM.

On to `Nc1ncccc1-c1nc2ccc(-n3cccn3)nc2n1-c1ccc2c(c1)CC[C@@H]2NC1CCN(C(=O)[C@H]2CO2)CC1` [Example 122, 3-{3-[(1S)-1-({1-[(2R)-oxirane-2-carbonyl]piperidin-4-yl}amino)-2,3-dihydro-1H-inden-5-yl]-5-(pyrazol-1-yl)imidazo[4,5-b]pyridin-2-yl}pyridin-2-amine], for which the IC50 amounted to 0.112 µM at AKT1 E17K; 0.305 µM at AKT2; 0.0413 µM at AKT1 WT; 0.116 µM in experiment [1] (Homo sapiens, LAPC4, 72 h).

With `C=CC(=O)N1CCC(N[C@H]2CCc3cc(-n4c(-c5cccnc5N)nc5ccc(-n6cccn6)nc54)ccc32)C(C)(F)C1` (stereo partly drawn) [Example 308, 1-((3*)-4-(((S)-5-(2-(2-aminopyridin-3-yl)-5-(1H-pyrazol-1-yl)-3H-imidazo[4,5-b]pyridin-3-yl)-2,3-dihydro-1H-inden-1-yl)amino)-3-fluoro-3-methylpiperidin-1-yl)prop-2-en-1-one], the IC50 at AKT1 E17K worked out at 0.0118 µM; at AKT2 it was 0.0623 µM; on AKT1 WT, 0.307 µM; in experiment [1] (Homo sapiens, LAPC4, 72 h), 0.3 µM.

As for `C=CC(=O)N1CCC(N[C@H]2CC(F)c3cc(-n4c(-c5cccnc5N)nc5ccc(-n6cccn6)nc54)ccc32)CC1` (single isomer, unassigned) [Example 233, 1-(4-(((1S,3*)-5-(2-(2-aminopyridin-3-yl)-5-(1H-pyrazol-1-yl)-3H-imidazo[4,5-b]pyridin-3-yl)-3-fluoro-2,3-dihydro-1H-inden-1-yl)amino)piperidin-1-yl)prop-2-en-1-one], the IC50 at AKT1 E17K came to 0.0146 µM; on AKT2 it was 0.028 µM; on AKT1 WT it was 0.0597 µM; in experiment [1] (72 h) it was 0.07 µM.

Regarding `C=CC(=O)N1CCC(N[C@H]2CCc3cc(-n4c(-c5cccnc5N)nc5ccc(-n6cccn6)nc54)ccc32)C(C#N)C1` (single isomer, unassigned) [Example 156, (3*,4*)-1-acryloyl-4-(((S)-5-(2-(2-aminopyridin-3-yl)-5-(1H-pyrazol-1-yl)-3H-imidazo[4,5-b]pyridin-3-yl)-2,3-dihydro-1H-inden-1-yl)amino)piperidine-3-carbonitrile], the IC50 came out at 0.0113 µM on AKT1 E17K, 0.0647 µM on AKT2, 0.0098 µM at AKT1 WT and 0.0302 µM in experiment [1] (72 h).

As to `C=CC(=O)N1CCC(N[C@H]2CCc3cc(-n4c(-c5cccnc5N)nc5ccc(N6CCN(C)CC6)nc54)ccc32)CC1` [Example 259, 1-(4-{[(1S)-5-[2-(2-aminopyridin-3-yl)-5-(4-methylpiperazin-1-yl)imidazo[4,5-b]pyridin-3-yl]-2,3-dihydro-1H-inden-1-yl]amino}piperidin-1-yl)prop-2-en-1-one], the IC50 was 0.15 µM on AKT1 E17K; 0.968 µM on AKT2; 3.29 µM at AKT1 WT; 1.52 µM in experiment [1] (Homo sapiens, LAPC4, 72 h).

Consider `C=CC(=O)N1CCC[C@@H]1C(=O)N[C@H]1CCc2cc(-n3c(-c4cccnc4N)nc4ccc(-n5cccn5)nc43)ccc21` [Example 25], for which the IC50 was more than 1 µM at AKT1 E17K; more than 10 µM on AKT2; more than 1 µM on AKT1 WT; more than 10 µM in experiment [1] (Homo sapiens, LAPC4, 72 h).

Regarding `C=CC(=O)N1CCC(N[C@@H]2c3ccc(-n4c(-c5cccnc5N)nc5ccc(-n6cccn6)nc54)cc3CC2(F)F)CC1` [Example 119, 1-(4-{[(1R)-5-[2-(2-aminopyridin-3-yl)-5-(pyrazol-1-yl)imidazo[4,5-b]pyridin-3-yl]-2,2-difluoro-1,3-dihydroinden-1-yl]amino}piperidin-1-yl)prop-2-en-1-one], the IC50 was 0.582 µM on AKT1 E17K; 3.59 µM on AKT2; 0.0856 µM at AKT1 WT; 0.595 µM in experiment [1] (Homo sapiens, LAPC4, 72 h).

As for `C=CC(=O)N1CCN(NC2CCc3cc(-n4c(-c5cccnc5N)nc5ccc(-n6cccn6)nc54)ccc32)CC1` (single isomer, unassigned) [Example 148, (*)-1-(4-((5-(2-(2-aminopyridin-3-yl)-5-(1H-pyrazol-1-yl)-3H-imidazo[4,5-b]pyridin-3-yl)-2,3-dihydro-1H-inden-1-yl)amino)piperazin-1-yl)prop-2-en-1-one], the IC50 on AKT1 E17K is 0.038 µM; at AKT2 it was 0.061 µM; at AKT1 WT it was 0.0125 µM; in experiment [1] (72 h), 0.0933 µM.

In the case of `C=CC(=O)N1CCC(N[C@@H]2CCc3cc(-n4c(-c5cccnc5N)nc5ccc(-n6cccn6)nc54)ccc32)CC1` [Example 149, 1-(4-{[(1R)-5-[2-(2-aminopyridin-3-yl)-5-(pyrazol-1-yl)imidazo[4,5-b]pyridin-3-yl]-2,3-dihydro-1H-inden-1-yl]amino}piperidin-1-yl)prop-2-en-1-one], the IC50 on AKT1 E17K was 0.0608 µM; at AKT2, 0.189 µM; on AKT1 WT, 0.0235 µM; in experiment [1] (Homo sapiens, LAPC4, 72 h) it was 0.109 µM.

As for `CN(CC#N)C(=O)N1CCC(N[C@H]2CCc3cc(-n4c(-c5cccnc5N)nc5ccc(-n6cccn6)nc54)ccc32)CC1` [Example 128, 4-{[(1S)-5-[2-(2-aminopyridin-3-yl)-5-(pyrazol-1-yl)imidazo[4,5-b]pyridin-3-yl]-2,3-dihydro-1H-inden-1-yl]amino-N}-(cyanomethyl)-N-methylpiperidine-1-carboxamide], the IC50 amounted to 0.00862 µM on AKT1 E17K; 0.043 µM at AKT2; 0.0106 µM at AKT1 WT; 0.0448 µM in experiment [1] (Homo sapiens, LAPC4, 72 h).

For the molecule `C=CC(=O)N1CCC(N[C@H]2CCc3cc(-n4c(-c5cccnc5N)nc5ccc(-n6cc(F)cn6)nc54)ccc32)CC1` [Example 254, (S)-1-(4-((5-(2-(2-aminopyridin-3-yl)-5-(4-fluoro-1H-pyrazol-1-yl)-3H-imidazo[4,5-b]pyridin-3-yl)-2,3-dihydro-1H-inden-1-yl)amino)piperidin-1-yl)prop-2-en-1-one], the IC50 stood at 0.0109 µM at AKT1 E17K; 0.0368 µM at AKT2; 0.0897 µM at AKT1 WT; 0.0933 µM in experiment [1] (Homo sapiens, LAPC4, 72 h).

On to `C=CC(=O)N1CCC(NC2CCc3cc(-n4c(-c5cccnc5N)nc5ccc(C6CC6(F)F)nc54)ccc32)CC1` (single isomer, unassigned) [Example 244, 1-(4-(((*)-5-(2-(2-aminopyridin-3-yl)-5-((*)-2,2-difluorocyclopropyl)-3H-imidazo[4,5-b]pyridin-3-yl)-2,3-dihydro-1H-inden-1-yl)amino)piperidin-1-yl)prop-2-en-1-one], for which the IC50 stood at 0.0201 µM at AKT1 E17K; 0.199 µM on AKT2; 0.984 µM on AKT1 WT; 0.371 µM in experiment [1] (Homo sapiens, LAPC4, 72 h).
